The text below walks through data of patent US8440830B2, “Tetrahydro-fused pyridines as histone deacetylase inhibitors” (4SC AG, priority 2007, dated 2013).

Assay [1] relates to A549 NSCLC cells. The assay is described as follows: Cellular cytotoxicity assay (Alamar Blue), A549. Format: cell-based. Particulars: Homo sapiens, 72 h, upper end given as ≧100, read-out: IC50 (μM), cytotoxicity towards A549 NSCLC cells. Put shortly:
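Resazurin-to-resorufin fluorescence (ex 544, em 590 nm, after 4 h) gave viability as % of untreated cells following 72 h compound exposure at 37 °C. Compounds were added in semi-logarithmic dilutions 24 h post-seeding, quadruplicate wells; IC50 fitted by non-linear regression of concentration-effect curves.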

The test system of assay [2] is histone H3 hyperacetylation in HeLa cervical carcinoma cells. Kind of assay: Cellular histone H3 hyperacetylation assay. In kind it is cell-based. The note with it: Homo sapiens, 24 h treatment. The source says: To assess the cellular efficacy of a histone deacetylase inhibitor in vitro, an assay is set up in black clear-bottom 96-well plates and optimized for use on the Cellomics “ArrayScan II” platform for a quantitative calculation of histone acetylation. The protocol uses a polyclonal rabbit antibody, specifically binding to acetylated lysine 1-20 (including K 9 and K14) of human histone H3 on fixed cells with an Alexa Fluor 488 labeled goat anti rabbit-IgG used for counterstaining 5×10^3 HeLa cervical carcinoma cells/well (ATCC CCL-2) in 200 μl Dulbecco's modified Eagle's medium (DMEM) containing 10% fetal calf serum are seeded at day 1 in Packard view plates and incubated for 24 h under standard cell culture conditions. On day 2, 1 μl test compound (200× final concentration) is added and incubation continued for further 24 h. On day 3, the culture medium is discarded and attached cells fixed for 15 min at room temperature by addition of 100 μl fixation buffer (3.7% v:v formaldehyde in phosphate buffered saline/PBS). After discarding the fixation buffer and one wash with blocking solution (1% BSA, 0.3% Tween 20 in PBS), cells are permeabilized at room temperature by addition of 100 μl /well permeabilization buffer (30.8 mM NaCl, 0.54 mM Na2HPO4, 0.31 mM KH2PO4, 0.1% v:v Triton X-100) for 15 min at room temperature. After discarding the permeabilization buffer and washing twice with 100 μl/well blocking solution at room temperature, the 1st antibody (anti-K1-20 histone H3 antibody, Calbiochem No. 382158) in blocking solution (50 μl/well) is added. After incubation for 1 h at room temperature, the wells are washed twice at room temperature with 100 μl/well blocking solution before addition of the 2nd antibody (goat-anti-rabbit Alexa Fluor 488; MoBiTec No. A -11008) in blocking solution (50 μl well). After further incubation for 1 h at room temperature, wells are washed twice with 100 μl/well blocking solution at room temperature. Finally, 100 μl/well PBS are added and image analysis performed on the Cellomics “ArrayScan II” platform. For EC50 determination, the percentage of positive cells showing nuclear fluorescence is determined and EC50 calculation done from concentration-effect curves by means of non-linear regression. For calibration, a positive (reference HDAC inhibitors like SAHA or NVP LBH-589) and a negative control were included.

The mark [3] stands for this setting: read-out: EC50, induction of histone H3 hyperacetylation.
[4] abbreviates: read-out: −lg EC50, induction of histone H3 hyperacetylation.

SMILES strings stand for the structures. Where two headings read alike, the source gives them in different places.

As for `COc1ccc(NC(=NC#N)N2CCc3nc(C(=O)Nc4ccccc4N)sc3C2)cc1` [Example 117, N-(2-aminophenyl)-5-{(cyanoimino)[(4-methoxyphenyl)amino]methyl}-4,5,6,7-tetrahydro[1,3]thiazolo[5,4-c]pyridine-2-carboxamide], in assay [1], the IC50 is ≥ 0.2 µM. For the same compound, the EC50 in assay [2] (setting [3]) lay within 150 to 15000 nM; in assay [2] (setting [4]), 251 to 15800 nM.

Turning to `COc1ccc(NC(=NC#N)N2CCc3nc(C(=O)Nc4ccccc4N)sc3C2)cc1OC` [Example 118, N-(2-aminophenyl)-5-{(cyanoimino)[(3,4-dimethoxyphenyl)amino]methyl}-4,5,6,7-tetrahydro[1,3]thiazolo[5,4-c]pyridine-2-carboxamide], the IC50 in assay [1] was ≥ 0.2 µM. Also, the EC50 in assay [2] (setting [3]) lay within 150 to 15000 nM; in assay [2] (setting [4]) it was 251 to 15800 nM.

Consider `N#CN=C(NCc1ccccc1)N1CCc2nc(C(=O)Nc3ccccc3N)sc2C1` [Example 122, N-(2-aminophenyl)-5-[(benzylamino)(cyanoimino)methyl]-4,5,6,7-tetrahydro[1,3]thiazolo[5,4-c]pyridine-2-carboxamide], for which, in assay [1], the concentration for half-maximal inhibition (IC50) was ≥ 0.2 µM. Moreover, the concentration for a half-maximal effect (EC50) in assay [2] (setting [3]) lay within 150 to 15000 nM; in assay [2] (setting [4]), 251 to 15800 nM.

With `Nc1ccccc1NC(=O)c1nc2c(s1)CN(S(=O)(=O)c1ccc(-c3ccccc3)cc1)CC2` [Example 152, N-(2-aminophenyl)-5-(biphenyl-4-ylsulfonyl)-4,5,6,7-tetrahydro[1,3]thiazolo[5,4-c]pyridine-2-carboxamide], the IC50 in assay [1] is ≥ 0.2 µM. The concentration giving a half-maximal response (EC50) in assay [2] (setting [3]) was in the range of 150 to 15000 nM; in assay [2] (setting [4]) it was 251 to 15800 nM.

`CS(=O)(=O)N1CCc2nc(C(=O)Nc3ccccc3N)sc2C1` [Example 154, N-(2-aminophenyl)-5-(methylsulfonyl)-4,5,6,7-tetrahydro[1,3]thiazolo[5,4-c]pyridine-2-carboxamide]: in assay [1], the 50% inhibitory concentration (IC50) was ≥ 0.2 µM. Moreover, the values for the EC50 in assay [2] (setting [3]) and in assay [2] (setting [4]) were 150 to 15000 nM and 251 to 15800 nM, respectively.

Turning to `COc1cccc(S(=O)(=O)N2CCc3nc(C(=O)Nc4ccccc4N)sc3C2)c1` [Example 160, N-(2-aminophenyl)-5-[(3-methoxyphenyl)sulfonyl]-4,5,6,7-tetrahydro[1,3]thiazolo[5,4-c]pyridine-2-carboxamide], the IC50 in assay [1] is ≥ 0.2 µM. Also, the results for the concentration giving a half-maximal response (EC50) in assay [2] (setting [3]) and in assay [2] (setting [4]) were 150 to 15000 nM and 251 to 15800 nM, respectively.

Consider `Cc1ccc(OCC(=O)N2CCc3nc(C(=O)Nc4ccccc4N)sc3C2)cc1` [Example 173, N-(2-aminophenyl)-5-[(4-methylphenoxy)acetyl]-4,5,6,7-tetrahydro[1,3]thiazolo[5,4-c]pyridine-2-carboxamide], for which the IC50 in assay [1] is ≥ 0.2 µM. The results for the concentration giving a half-maximal response (EC50) in assay [2] (setting [3]) and in assay [2] (setting [4]) were 150 to 15000 nM and 251 to 15800 nM, respectively.

For `COc1ccc(OCC(=O)N2CCc3nc(C(=O)Nc4ccccc4N)sc3C2)cc1` [Example 174, N-(2-aminophenyl)-5-[(4-methoxyphenoxy)acetyl]-4,5,6,7-tetrahydro[1,3]-thiazolo[5,4-c]pyridine-2-carboxamide], the concentration for half-maximal inhibition (IC50) in assay [1] is ≥ 0.2 µM. Moreover, the results for the EC50 in assay [2] (setting [3]) and in assay [2] (setting [4]) were 150 to 15000 nM and 251 to 15800 nM, respectively.

`Nc1ccccc1NC(=O)c1nc2c(s1)CN(C(=O)COc1ccc(-c3ccccc3)cc1)CC2` [Example 176, N-(2-aminophenyl)-5-[(biphenyl-4-yloxy)acetyl]-4,5,6,7-tetrahydro[1,3]thiazolo[5,4-c]pyridine-2-carboxamide]: in assay [1], the 50% inhibitory concentration (IC50) is ≥ 0.2 µM. The results for the EC50 in assay [2] (setting [3]) and in assay [2] (setting [4]) were 150 to 15000 nM and 251 to 15800 nM, respectively.

Consider `COC(=O)N1CCc2nc(C(=O)Nc3ccccc3N)sc2C1` [Example 180, Methyl 2-[(2-aminophenyl)carbamoyl]-6,7-dihydro[1,3]thiazolo[5,4-c]pyridine-5(4H)-carboxylate], for which, in assay [1], the IC50 was ≥ 0.2 µM. Besides, the EC50 in assay [2] (setting [3]) was in the range of 150 to 15000 nM; in assay [2] (setting [4]), 251 to 15800 nM.

In the case of `COc1ccc(OC(=O)N2CCc3nc(C(=O)Nc4ccccc4N)sc3C2)cc1` [Example 183, 4-methoxyphenyl 2-[(2-aminophenyl)carbamoyl]-6,7-dihydro[1,3]thiazolo[5,4-c]pyridine-5(4H)-carboxylate], in assay [1], the IC50 is ≥ 0.2 µM. Moreover, the figures for the half-maximal effective concentration (EC50) in assay [2] (setting [3]) and in assay [2] (setting [4]) were 150 to 15000 nM and 251 to 15800 nM, respectively.

For `COc1ccc(OC(=O)N2CCc3nc(C(=O)Nc4ccccc4N)sc3C2)cc1OC` [Example 186, 3,4-dimethoxyphenyl 2-[(2-aminophenyl)carbamoyl]-6,7-dihydro[1,3]thiazolo[5,4-c]pyridine-5(4H)-carboxylate], in assay [1], the IC50 was ≥ 0.2 µM. Besides, the EC50 in assay [2] (setting [3]) fell in the range of 150 to 15000 nM; in assay [2] (setting [4]) it was 251 to 15800 nM.

In the case of `Nc1ccccc1NC(=O)c1nc2c(s1)CN(C(=O)C=Cc1ccc3c(c1)OCO3)CC2` [Example 190, N-(2-aminophenyl)-5-[3-(1,3-benzodioxol-5-yl)prop-2-enoyl]-4,5,6,7-tetrahydro[1,3]thiazolo[5,4-c]pyridine-2-carboxamide], the IC50 in assay [1] was ≥ 0.2 µM. Moreover, the concentration for a half-maximal effect (EC50) in assay [2] (setting [3]) was in the range of 150 to 15000 nM; in assay [2] (setting [4]) it was 251 to 15800 nM.

For `Nc1ccccc1NC(=O)c1nc2c(s1)CN(C(=O)C=Cc1ccc(O)c(O)c1)CC2` [Example 191, N-(2-aminophenyl)-5-[3-(3,4-dihydroxyphenyl)prop-2-enoyl]-4,5,6,7-tetrahydro[1,3]thiazolo[5,4-c]pyridine-2-carboxamide], the half-maximal inhibitory concentration (IC50) in assay [1] is ≥ 0.2 µM. Moreover, the EC50 in assay [2] (setting [3]) is 150 to 15000 nM; in assay [2] (setting [4]) it was 251 to 15800 nM.

Consider `Nc1ccccc1NC(=O)c1nc2c(s1)CN(c1ncccn1)CC2` [Example 192, N-(2-aminophenyl)-5-pyrimidin-2-yl-4,5,6,7-tetrahydro[1,3]thiazolo[5,4-c]pyridine-2-carboxamide], for which the half-maximal inhibitory concentration (IC50) in assay [1] is ≥ 0.2 µM. Moreover, the EC50 in assay [2] (setting [3]) lay in the range of 150 to 15000 nM; in assay [2] (setting [4]), 251 to 15800 nM.

For `Nc1ccccc1NC(=O)c1nc2c(s1)CN(c1nccc(-c3cccnc3)n1)CC2` [Example 193, N-(2-aminophenyl)-5-(4-pyridin-3-ylpyrimidin-2-yl)-4,5,6,7-tetrahydro[1,3]thiazolo[5,4-c]pyridine-2-carboxamide], in assay [1], the IC50 is ≥ 0.2 µM. In addition, the EC50 is 150 to 15000 nM in assay [2] (setting [3]) and 251 to 15800 nM in assay [2] (setting [4]).

For `Nc1ccccc1NC(=O)c1nc2c(s1)CN(c1ccc([N+](=O)[O-])cn1)CC2` [Example 194, N-(2-aminophenyl)-5-(5-nitropyridin-2-yl)-4,5,6,7-tetrahydro[1,3]thiazolo[5,4-c]pyridine-2-carboxamide], the 50% inhibitory concentration (IC50) in assay [1] was ≥ 0.2 µM. In addition, the concentration giving a half-maximal response (EC50) in assay [2] (setting [3]) lay within 150 to 15000 nM; in assay [2] (setting [4]), 251 to 15800 nM.

Turning to `Cc1ccc(S(=O)(=O)Nc2cnc(N3CCc4nc(C(=O)Nc5ccccc5N)sc4C3)nc2)cc1` [Example 196, N-(2-aminophenyl)-5-(5-{[(4-methylphenyl)sulfonyl]amino}pyrimidin-2-yl)-4,5,6,7-tetrahydro[1,3]thiazolo[5,4-c]pyridine-2-carboxamide], in assay [1], the half-inhibitory concentration (IC50) was ≥ 0.2 µM. The figures for the EC50 in assay [2] (setting [3]) and in assay [2] (setting [4]) were 150 to 15000 nM and 251 to 15800 nM, respectively.

For `Cc1ccc(S(=O)(=O)Nc2ccc(N3CCc4nc(C(=O)Nc5ccccc5N)sc4C3)nc2)cc1` [Example 197, N-(2-aminophenyl)-5-(5-{[(4-methylphenyl)sulfonyl]amino}pyridin-2-yl)-4,5,6,7-tetrahydro[1,3]thiazolo[5,4-c]pyridine-2-carboxamide], the half-inhibitory concentration (IC50) in assay [1] was ≥ 0.2 µM. The values for the EC50 in assay [2] (setting [3]) and in assay [2] (setting [4]) were 150 to 15000 nM and 251 to 15800 nM, respectively.
